Structures are written as SMILES. “And” between values parts separate entries of the source, which are not always exact repeats. Equal entries are not always repeated. Some results are limits rather than exact numbers.

This assay deals with 874868-142-R-J2-PDC complex spheroids, growth % test/control. Put plainly: Anticancer human tumor 874868-142-R-J2-PDC patient-derived head and neck squamous carcinoma cell line growth inhibition [CLK]. Conditions: for viability, T/C: stronger effect = lower value. The source says:
A high-throughput screen of multi-cell type tumor spheroids was designed to identify active combinations of […] and targeted small molecules. Complex spheroids include a stromal component modeled by human endothelial cells (HUVEC) and fibroblasts modeled by human mesenchymal stem cells (MSCs). The concentration ranges selected for each drug and investigational agent were based upon clinically achievable concentrations if the clinical Cmax of the agent was known.
Compounds. The drugs and investigational agents: cirtuvivint (SM08502; NSC835563), CC-671 (NSC850746), vemurafenib (NSC761431), tapotoclax (NSC804041), sotorasib (NSC818433), adagrasib (NSC831453), MRTX-1133 (NSC836407), BAY2416964 (NSC825713), copanlisib (NSC816437), inavolisib (NSC800729), abemaciclib (NSC768073), osimertinib (NSC779217), entinostat (NSC756642), eltanexor (KPT-8602, NSC794443), venetoclax (NSC766270), ceralasertib (NSC777638), bortezomib (NSC756655), olaparib (NSC753686), talazoparib (NSC767125), alisertib (NSC759677), peposertib (NSC802822), gemcitabine (NSC613327), 5-fluorouracil (NSC19893), SN-38 (NSC673596), oxaliplatin (NSC266046), paclitaxel (NSC125973), and doxorubicin (NSC123127), were obtained from the National Cancer Institute (NCI) Developmental Therapeutics Program Chemical Repository. The FDA-approved anticancer drug set is available from the Developmental Therapeutics Program at https://dtp.cancer.gov/organization/dscb/obtaining/available plates.htm. […] The stock solutions were prepared in dimethyl sulfoxide (DMSO, Sigma-Aldrich, St. Louis, MO, cat. D2650), except for the platinum complexes which were prepared in saline (Quality Biological, Gaithersburg, MD, cat. 114-055-101), at 800-fold the tested concentration and stored at -70 degrees C prior to their use. All drugs and investigational agents were tested over a range starting from a high concentration at or near the clinical Cmax and decreasing in half-log increments. If the clinical Cmax for an agent had not been determined, the highest concentration tested was 10 microM.
Cell Culture. All cells were maintained in an incubator at 37 degrees C and 5% CO2 with 95% humidity. The PDC lines were cultured according to standard operating procedures established by the NCI PDMR. Briefly, all PDCs were thawed and cultured in Matrigel-coated flasks prepared with a working solution of 1X Ham's F-12 nutrient mix, without supplementation (Invitrogen, Waltham, MA, cat. 11765054), 100 U/mL penicillin-streptomycin (Invitrogen, cat. 15140122), and 2.5% Matrigel (Corning Inc., Corning, NY, cat. 354248) for the first three passages. The 947758-054-R-J2-PDC line was cultured in 6B/Colon 1A media, which includes advanced DMEM/F-12 (Thermo Fisher Scientific, cat. 12634028), 10 mM HEPES (Thermo Fisher Scientific, cat. 15630080), 1X GlutaMAX supplement (Thermo Fisher Scientific, cat. 35050061), 0.1 mg/mL primocin (InvivoGen, cat. ant-pm-2), 10% defined fetal bovine serum, heat inactivated (HyClone Laboratories Inc., cat. SH30070.03HI), 1.25 mM N-Acetyl-L-cysteine (Sigma-Aldrich, cat. A9165), 10 mM nicotinamide (Sigma-Aldrich, cat. N0636), 1X B-27 supplement (Thermo Fisher Scientific, cat. 17504044), 1X N-2 supplement (Thermo Fisher Scientific, cat. 17502048), and 10 microM Y-27632 dihydrochloride (Tocris Bioscience, cat. 1254). The 876862-298-R-J1-PDC was cultured in 6E media, which includes all 6B/Colon 1A media components plus 50% L-WRN conditioned media (ATCC, cat. CRL-3276), 50 ng/mL recombinant human EGF recombinant protein (hEGF; Thermo Fisher Scientific, cat. PHG0311), 10 ng/mL recombinant human fibroblast growth factor 10 (hGFG-10; PeproTech, cat. 100-26), 1 ng/mL recombinant human fibroblast growth factor 2 (hFGF-2; PeproTech, cat. 100-18B), and 1 µM prostaglandin E2 (PGE2; Tocris, cat. 2296). The 227483-062-R1-J1-PDC line was cultured in Panc media, containing all 6E components except hFGF-2, with the addition of 500 nM SB-431542 (Selleckchem, cat. S1067) and 10 nM gastrin (Tocris, cat. 3006). […]
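Further: spheroids exposed to the compounds for 7 days.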

For the compound `C#Cc1c(F)ccc2cc(O)cc(-c3ncc4c(N5CC6CCC(C5)N6)nc(OCC56CCCN5CC(F)C6)nc4c3F)c12` (centres undefined), the viability, T/C – broadly, the ratio of treated to control – is, setting by setting: (compound 0.0316 µM) 87.8% and 104%; (compound 0.1 µM) 90.5% and 95.1%; (compound 0.316 µM) 85.1% and 93.7%; (compound 1 µM) 82.3% and 61%; (compound 3.16 µM) 61.4% and 59%; (compound 10 µM) 49.3% and 46%. Where the note is “curve of compound”, the IC50 (as a rule, the concentration needed to halve the response being measured) is 9280 nM and > 10000 nM.

Turning to `C=C(F)C(=O)N1CCN(c2nc(OCC3CCCN3C)nc3c2CCN(c2cccc4cccc(Cl)c24)C3)CC1CC#N` (centres undefined), the viability, T/C is, setting by setting: (compound 0.0316 µM) 81.4% and 94.5%; (compound 0.1 µM) 95.2% and 103%; (compound 0.316 µM) 76.2% and 82.3%; (compound 1 µM) 68.4% and 87.2%; (compound 3.16 µM) 53.2% and 64.6%; (compound 10 µM) 1.63% and 4.44%. Also, the concentration for half-maximal inhibition (IC50) (curve of compound) is 3200 nM and 4140 nM.

`C=CC(=O)N1CCN(c2nc(=O)n(-c3c(C)ccnc3C(C)C)c3nc(-c4c(O)cccc4F)c(F)cc23)C(C)C1` (centres undefined): the viability, T/C is, setting by setting: (compound 0.0316 µM) 109% and 92.4%; (compound 0.1 µM) 84.9% and 96%; (compound 0.316 µM) 109% and 104%; (compound 1 µM) 119% and 104%; (compound 3.16 µM) 133% and 131%; (compound 10 µM) 114% and 88.2%. Also, under “curve of compound”, the half-inhibitory concentration (IC50) was above 10000 nM.

In the case of `C=CC(=O)Nc1cc(Nc2nccc(-c3cn(C)c4ccccc34)n2)c(OC)cc1N(C)CCN(C)C`, the viability, T/C by setting is: (compound 0.000949 µM) 103% and 99.9%; (compound 0.003 µM) 99.5% and 112%; (compound 0.00949 µM) 81.5% and 83.4%; (compound 0.03 µM) 83.7% and 76.9%; (compound 0.0949 µM) 42.4% and 47.1%; (compound 0.3 µM) 24.2% and 20.6%. Besides, the IC50 (curve of compound) is 83.5 nM and 85.2 nM.

Take `CC(C)CC(NC(=O)C(Cc1ccccc1)NC(=O)c1cnccn1)B(O)O` (centres undefined): the viability, T/C is 102% and 92.4% (compound 0.000949 µM); 112% and 103% (compound 0.003 µM); 20.4% and 5.73% (compound 0.00949 µM); 3.18% and 1.36% (compound 0.03 µM); 0.29% and 1.25% (compound 0.0949 µM); 0.24% and 4.02% (compound 0.3 µM). Moreover, the half-maximal inhibitory concentration (IC50) (curve of compound) was 6.41 nM and 5.45 nM.

In the case of `CC(CO)NC(=O)c1cc(-c2ccc(Cl)cc2)nn(-c2cnn(C)c2)c1=O` (centres undefined), the viability, T/C by setting is: (compound 0.0316 µM) 102% and 93.8%; (compound 0.1 µM) 95.6% and 100%; (compound 0.316 µM) 97.7% and 89.3%; (compound 1 µM) 101% and 94.3%; (compound 3.16 µM) 102% and 94.3%; (compound 10 µM) 95.6% and 99.3%. Besides, the IC50 (curve of compound) is above 10000 nM.

For the compound `CC(Nc1ccc2c(c1)OCCn1cc(N3C(=O)OCC3C(F)F)nc1-2)C(N)=O` (centres undefined), the viability, T/C (compound 0.0316 µM) is 89.2%; the viability, T/C (compound 0.1 µM) is 38.7%; the viability, T/C (compound 0.316 µM) is 28.3%; the viability, T/C (compound 1 µM) was 23.4%; the viability, T/C (compound 3.16 µM) was 13.5%; the viability, T/C (compound 10 µM) is 13.2%. For the same compound, the IC50 (curve of compound) is 82.4 nM.

Take `CC1(C)CCC(CN2CCN(c3ccc(C(=O)NS(=O)(=O)c4ccc(NCC5CCOCC5)c([N+](=O)[O-])c4)c(Oc4cnc5[nH]ccc5c4)c3)CC2)=C(c2ccc(Cl)cc2)C1`: the viability, T/C (compound 0.0316 µM) was 79.2% and 90.1%; the viability, T/C (compound 0.1 µM) is 104% and 95.1%; the viability, T/C (compound 0.316 µM) was 97.9% and 100%; the viability, T/C (compound 1 µM) was 101% and 91.3%; the viability, T/C (compound 3.16 µM) was 93% and 97.6%; the viability, T/C (compound 10 µM) was 84.1% and 44%. Moreover, under “curve of compound”, the IC50 was > 10000 nM and 8720 nM.

Consider `CCCS(=O)(=O)Nc1ccc(F)c(C(=O)c2c[nH]c3ncc(-c4ccc(Cl)cc4)cc23)c1F`, for which the viability, T/C (compound 0.0316 µM) is 115% and 95.8%; the viability, T/C (compound 0.1 µM) is 113% and 129%; the viability, T/C (compound 0.316 µM) is 116% and 105%; the viability, T/C (compound 1 µM) is 111% and 136%; the viability, T/C (compound 3.16 µM) was 120% and 141%; the viability, T/C (compound 10 µM) was 85.7% and 73.7%. For the same compound, the IC50 (curve of compound) is above 10000 nM.

Regarding `CCN1CCN(Cc2ccc(Nc3ncc(F)c(-c4cc(F)c5nc(C)n(C(C)C)c5c4)n3)nc2)CC1`, the viability, T/C by setting is: (compound 0.00316 µM) 107% and 111%; (compound 0.01 µM) 83.9% and 104%; (compound 0.0316 µM) 89.7% and 115%; (compound 0.1 µM) 76.6% and 104%; (compound 0.316 µM) 97.1% and 112%; (compound 1 µM) 156% and 101%. The IC50 (curve of compound) was above 1000 nM.

For `CCc1c2c(nc3ccc(O)cc13)-c1cc3c(c(=O)n1C2)COC(=O)[C@]3(O)CC`, the viability, T/C by setting is: (compound 0.00316 µM) 37.6% and 46.9%; (compound 0.01 µM) 41% and 49.8%; (compound 0.0316 µM) 32.2% and 42.1%; (compound 0.1 µM) 32.6% and 36%; (compound 0.316 µM) 11.1% and 16.2%; (compound 1 µM) 3.13% and 2.22%. Moreover, the IC50 (curve of compound) was below 3.16 nM.

On to `CN1CCN(c2cc(C(=O)Nc3cc4cc(-c5cnn(C)c5)ccc4cn3)ccn2)CC1`, for which the viability, T/C was 92.8% [middle of 12 runs] (compound 0.0316 µM); 75.6% [middle of 12 runs] (compound 0.1 µM); 19.5% [middle of 12 runs] (compound 0.316 µM); 2.43% [middle of 12 runs] (compound 1 µM); 0.92% [middle of 10 runs] (compound 3.16 µM); 0.22% [middle of 9 runs] (compound 10 µM). Also, the IC50 (compound alone, run of 09/18/2023) is 168 nM [middle of 10 runs].

As for `COC1C=CCC(C)C(C)S(=O)(=O)NC(=O)c2ccc3c(c2)N(CC2CCC21)CC1(CCCc2cc(Cl)ccc21)CO3` (centres undefined), the viability, T/C is 103% and 104% (compound 0.0316 µM); 72.9% and 83.5% (compound 0.1 µM); 65.5% and 53.1% (compound 0.316 µM); 50.5% and 46.5% (compound 1 µM); 25.1% and 30.6% (compound 3.16 µM); 12.7% and 13.8% (compound 10 µM). For the same compound, the IC50 (curve of compound) is 756 nM and 631 nM.

For the compound `COc1c(OCCCN2CCOCC2)ccc2c3n(c(=NC(=O)c4cnc(N)nc4)nc12)CCN3`, the viability, T/C (compound 0.00316 µM) was 67%; the viability, T/C (compound 0.01 µM) was 48.4%; the viability, T/C (compound 0.0316 µM) was 22.6%; the viability, T/C (compound 0.1 µM) is 10.7%; the viability, T/C (compound 0.316 µM) was 5.08%; the viability, T/C (compound 1 µM) is 3.71%. Moreover, the IC50 (curve of compound) was 8.88 nM.

In the case of `Cn1ncnc1[C@H]1c2n[nH]c(=O)c3cc(F)cc(c23)N[C@@H]1c1ccc(F)cc1`, the viability, T/C runs as follows: (compound 0.000316 µM) 115% and 86.3%; (compound 0.001 µM) 96.7% and 94.6%; (compound 0.00316 µM) 93.1% and 98.7%; (compound 0.01 µM) 92.4% and 87.5%; (compound 0.0316 µM) 73.8% and 87%; (compound 0.1 µM) 69.2% and 77.6%. Moreover, the IC50 (curve of compound) was above 100 nM.

Take `NC(=O)C(=Cn1cnc(-c2cc(C(F)(F)F)cc(C(F)(F)F)c2)n1)c1cncnc1`: the viability, T/C reads like this: (compound 0.00949 µM) 90.5% and 86%; (compound 0.03 µM) 72.8% and 48.9%; (compound 0.0949 µM) 43.8% and 30.9%; (compound 0.3 µM) 18.4% and 12%; (compound 0.949 µM) 4.77% and 4.05%; (compound 3 µM) 8.1% and 6.28%. Also, the IC50 (curve of compound) was 73 nM and 31.1 nM.

Turning to `Nc1ccccc1NC(=O)c1ccc(CNC(=O)OCc2cccnc2)cc1`, the viability, T/C is 97% and 102% (compound 0.0316 µM); 95.4% and 87.3% (compound 0.1 µM); 90% and 113% (compound 0.316 µM); 110% and 124% (compound 1 µM); 95.8% and 101% (compound 3.16 µM); 36.9% and 26.4% (compound 10 µM). Further, the IC50 (curve of compound) was 7730 nM and 6990 nM.

The values above are taken from PubChem BioAssay AID2060601 (Molecular Pharmacology Branch, DTP, NCI, 2025).
